Drawing on patent US20080058426A1, “COMPOSITION AND METHOD FOR TREATING PSORIASIS” (priority 2006, published 2008), this text covers Toxic side effects for one substance.

A short description of this data set: Safety of THC in the psoriasis clinical study. The settings on record: human, in vivo. The text has this: • Study Duration: 45 days • Population: 10 psoriasis affected subjects • Intervention: THC formulated as a cream with pharmaceutically acceptable carriers applied topically three times a day for 45 days.
The primary objective in this study was to determine the efficacy and safety of the THC cream. The parameters to detect the efficacy and safety of the medication included relief from the characteristic symptoms of psoriasis like itching, erythema, scaling, infiltration, and the extent of clearance of psoriasis lesions.

Regarding Tetrahydrocurcuminoids [THC], the Toxic side effects entry is “devoid of toxic side effects”.
